Ten compounds from PubChem BioAssay (NCI) can be followed below.

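48-hour exposure; five concentrations; linearly interpolated endpoints. The concentration for 50% growth inhibition is given as GI50. The concentration for full growth arrest is given as TGI.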

What all share (experiment): inhibition of tumour cell growth, NCI panel, 48 h
The test system of assay [1] is CCRF-CEM leukemia.
The test system of assay [2] is HOP-62 NSCLC.
Assay [3] deals with HT29 colon.
For assay [4], the system named is IGROV1 ovarian.
Assay [5] concerns K-562 leukemia.
For assay [6], the system named is MDA-MB-435.
The subject of assay [7] is NCI-H522 lung.
Assay [8] concerns SF-268 CNS.
Assay [9] concerns SF-295 CNS.
For assay [10], the system named is SK-MEL-28 melanoma.

With `C/C(O)=C(/C=N/C(=S)Nc1ccc(S(N)(=O)=O)cc1)C(=O)Nc1ccccc1C`, the TGI was 65.9 µM in [1]; above 100 µM in [2]; above 100 µM in assay [3]; above 100 µM in assay [4]; above 100 µM in [5]; above 100 µM in [6]. The TGI in assay [7], in assay [8] and in assay [9] was above 100 µM each time.
With `Cc1cc(NCCCN(C)C)c2ccc3c(ccc4c(NCCCN(C)C)cc(C)nc43)c2n1`, the GI50 in [1] was 0.158 µM; in [2], 0.196 µM; in [3], 0.149 µM; in [4], 0.152 µM; in assay [5], 0.454 µM; in [6], 0.226 µM. The GI50 was 0.202 µM in assay [7], 0.176 µM in assay [8], 0.205 µM in assay [9] and 0.187 µM in assay [10]. Moreover, the TGI in assay [1] was 0.478 µM; in assay [2], 0.489 µM; in [3] it was 0.503 µM; in [4], 0.377 µM; in [5], above 100 µM; in assay [6], 0.539 µM. Also, the TGI in [7] worked out at 0.554 µM; in assay [8], 0.393 µM; in assay [9], 0.745 µM; in [10], 0.413 µM.
`O=C1NNC2(C(=O)N1)c1ccccc1-c1ccccc12`: the TGI in [1], in [2], in assay [3], in assay [4], in [5] and in assay [6] was above 10 µM each time. Also, the TGI in assay [7], in [8], in assay [9] and in assay [10] was above 10 µM throughout.
As for `O=C(Nc1ccc(Br)cc1F)c1cc(I)ccc1O`, the GI50 in assay [1] is 3.58 µM; in [2], 2.27 µM; in assay [3], 16.9 µM; in assay [4], 1.95 µM; in [5] it was 2.52 µM; in [6] it was 3.04 µM. The GI50 in assay [7] is 2.11 µM; in assay [8] it was 2.4 µM; in assay [9] it was 2.11 µM; in assay [10], 2.62 µM. In addition, the TGI in assay [1] is above 100 µM; in assay [2], 8.15 µM; in assay [3] it was 78.3 µM; in assay [4] it was above 100 µM; in [5], above 100 µM; in assay [6] it was 10.1 µM. The TGI in assay [7] stood at 7.16 µM; in assay [8], 29.6 µM; in [9] it was 4.85 µM; in assay [10], 11.3 µM.
Regarding `Cc1c(Cl)cccc1C(=O)Nc1nc2c(s1)CN(C(=O)c1ccc(C(F)(F)F)cc1)CC2`, the GI50 in assay [1] is 0.135 µM; in [2], 0.173 µM; in assay [3], 0.0753 µM; in assay [4], 0.177 µM; in assay [5], 0.0261 µM; in assay [6], 0.0154 µM. The GI50 is 0.0252 µM in [7], 0.565 µM in [8], 0.0224 µM in [9] and 4.11 µM in assay [10]. In addition, the TGI was above 50 µM in [1]; above 50 µM in [2]; 9.2 µM in assay [3]; above 50 µM in assay [4]; above 50 µM in assay [5]; 0.0521 µM in assay [6]. Moreover, the TGI in assay [7] was 2.33 µM; in assay [8] it was above 50 µM; in assay [9], above 50 µM; in [10] it was above 50 µM.
Turning to `CC(=O)N1CC(C)(C)c2c(C)c(O)c(C)c(C)c21`, the TGI in assay [1], in [2], in assay [3], in assay [4], in [5] and in [6] was above 100 µM each time. Further, the TGI in assay [7], in [8], in assay [9] and in assay [10] was above 100 µM throughout.
For the compound `CC1CCC/C1=C(/I)C(=O)c1ccccc1` (stereo not given), the TGI in [1] is 75.5 µM; in assay [2] it was above 100 µM; in [3], above 100 µM; in assay [4] it was above 100 µM; in [5] it was above 100 µM; in [6] it was 82 µM. Also, the TGI in assay [7], in assay [8], in [9] and in [10] was above 100 µM each time.
Consider `O=C1Nc2ccc(Br)cc2C1=Nc1cccnc1`, for which the TGI in assay [1] was found to be 57.4 µM; in assay [2], 74.2 µM; in assay [3], 51.3 µM; in assay [4] it was 60.7 µM; in assay [5], 52.7 µM; in assay [6] it was 28.9 µM. Besides, the TGI is 29.5 µM in assay [7], 71.8 µM in assay [8], above 100 µM in [9] and 42 µM in [10].
With `Cc1cccc(/C=N/NC(=S)N2CCCC2)n1`, the GI50 is 0.0659 µM in assay [1]; 2.17 µM in assay [2]; 4.49 µM in [3]; 0.415 µM in assay [4]; 0.17 µM in assay [5]; 1.11 µM in [6]. Besides, the GI50 was 2.29 µM in assay [8], 1.08 µM in assay [9] and 1.42 µM in assay [10]. Moreover, the TGI in assay [1] is 0.85 µM; in assay [2], 0.942 µM; in assay [3], above 100 µM; in assay [4] it was above 100 µM; in assay [5], above 100 µM; in [6], above 100 µM. The results for the TGI in [7], in [9] and in assay [10] were above 100 µM, 4.24 µM and above 100 µM, respectively.
In the case of `Cc1ccccc1OCC(O)CN1CCN(c2ccc(Cl)cc2)CC1` (stereo not given), the GI50 was 16.4 µM in [1]; 15.9 µM in assay [2]; 14.5 µM in assay [3]; 10.6 µM in assay [5]; 14.4 µM in assay [6]; 14.1 µM in assay [7]. The GI50 in assay [8] was 17.4 µM; in assay [9], 14.4 µM; in [10], 18.7 µM. Moreover, the TGI in [1] was 44.1 µM; in assay [2] it was 32.3 µM; in assay [3] it was 29.2 µM; in [5], 30.7 µM; in assay [6] it was 28.8 µM; in assay [7], 29.2 µM. Further, the TGI in assay [8] stood at 34.3 µM; in assay [9] it was 29.6 µM; in assay [10], 33.5 µM.
